Laboratory results published in publication PMC11606603, “The membrane domains of mammalian adenylyl cyclases are lipid receptors” (eLife, 2024).
Values joined by “and” are separate entries in the source; they are usually repeats but may differ in a detail not shown here. Identical values can stand only once.

Key:
Type in all cases: biochemical
[1] = molecular target: T1, mAC5 (Homo sapiens, UniProt O95622); assay: AC assay, Gsα-stimulated mAC5 in membranes from transfected HEK293 cells; settings: 20µM fatty acid concentration
T1 construct: Human mAC genes were from GenScript and fitted with a C-terminal FLAG-tag; FLAG (C); made in house; host or cells: HEK293, permanently transfected; membrane preparation
Description: (§1) hAC sequences were from NCBI were: ADCY1: NM_021116.3; ADCY2: NM_020546.2; ADCY3: NM_004036.4; ADCY4: NM_001198568.2; ADCY5: NM_183357.2; ADCY6: NM_015270.4; ADCY7: NM_001114.4; ADCY8: NM_001115.2; ADCY9: NM_001116.3. Human mAC genes were from GenScript and fitted with a C-terminal FLAG-tag. […] The gene was synthesized by GenScript. HEK293 cells were maintained in Dulbeccos Modified Eagle Medium (DMEM) with 10% fetal bovine serum at 37°C and 5% CO2. Transfection with AC plasmids was with PolyJet (SignaGen, Frederick, MD, USA). Permanent cell lines were generated by selection for 7 days with 600 µg/ml G418 and maintained with 300 µg/ml For membrane preparation, cells were tyrpsinized, collected by centrifugation (3000 × g, 5 min) and lysed and homogenized in 20 mM HEPES, pH 7.5, 1 mM Ethylenediaminetetraacetic acid (EDTA), 2 mM MgCl2, 1 mM Dithiothreitol (DTT), one tablet of cOmplete, EDTA-free (per 50 ml) and 250 mM sucrose by 20 strokes in a potter homogenizer on ice. Debris was removed (5 min at 1000 × g, 0°C), membranes were collected at 100,000 × g, 60 min at 0°C, suspended and stored at −80°C in 20 mM MOPS, pH 7.5, 0.5 mM EDTA, 2 mM MgCl2. […] Three cerebral cortices were dissected and homogenized in 4.5 ml cold 48 mM Tris–HCl, pH 7.4, 12 mM MgC1_2, and 0.1 mM Ethylene glycol-bis(β-aminoethyl ether)-N,N,N′,N′-tetraacetic acid (EGTA) with a Polytron hand disperser (Kinematica AG, Switzerland). […] The pellet was washed once with 5 ml 1 mM KHCO3. The final suspension in 2 ml 1 mM KHCO3 was stored in aliquots at −80°C.
(§2) In a volume of 10 μl, AC activities were measured using 1 mM ATP, 2 mM MgCl2, 3 mM creatine phosphate, 60 μg/ml creatine kinase, and 50 mM MOPS pH 7.5. The cAMP assay kit from Cisbio (Codolet, France) was used for detection according to the supplier’s instructions. For each assay, a cAMP standard curve was established. EC50 and IC50 values were calculated by GraphPad Prism version 8.4.3 for Windows, GraphPad Software, San Diego, CA, USA, https://www.graphpad.com .

[2] = molecular target: T2, mAC9 (Homo sapiens, UniProt O60503); assay: AC assay, Gsα-stimulated mAC9 in membranes from transfected HEK293 cells; settings: for mAC9 activity [%] (100% = 300nM Gsα stimulation); 20µM fatty acid concentration / mAC9 activity (%);(100% = Gsα stimulation) stimulated by 300nM Gsα: single experiments
T2 construct: Human mAC genes were from GenScript and fitted with a C-terminal FLAG-tag; FLAG (C); made in house; host or cells: HEK293, permanently transfected; membrane preparation
T2 sequence (O60503 whole entry): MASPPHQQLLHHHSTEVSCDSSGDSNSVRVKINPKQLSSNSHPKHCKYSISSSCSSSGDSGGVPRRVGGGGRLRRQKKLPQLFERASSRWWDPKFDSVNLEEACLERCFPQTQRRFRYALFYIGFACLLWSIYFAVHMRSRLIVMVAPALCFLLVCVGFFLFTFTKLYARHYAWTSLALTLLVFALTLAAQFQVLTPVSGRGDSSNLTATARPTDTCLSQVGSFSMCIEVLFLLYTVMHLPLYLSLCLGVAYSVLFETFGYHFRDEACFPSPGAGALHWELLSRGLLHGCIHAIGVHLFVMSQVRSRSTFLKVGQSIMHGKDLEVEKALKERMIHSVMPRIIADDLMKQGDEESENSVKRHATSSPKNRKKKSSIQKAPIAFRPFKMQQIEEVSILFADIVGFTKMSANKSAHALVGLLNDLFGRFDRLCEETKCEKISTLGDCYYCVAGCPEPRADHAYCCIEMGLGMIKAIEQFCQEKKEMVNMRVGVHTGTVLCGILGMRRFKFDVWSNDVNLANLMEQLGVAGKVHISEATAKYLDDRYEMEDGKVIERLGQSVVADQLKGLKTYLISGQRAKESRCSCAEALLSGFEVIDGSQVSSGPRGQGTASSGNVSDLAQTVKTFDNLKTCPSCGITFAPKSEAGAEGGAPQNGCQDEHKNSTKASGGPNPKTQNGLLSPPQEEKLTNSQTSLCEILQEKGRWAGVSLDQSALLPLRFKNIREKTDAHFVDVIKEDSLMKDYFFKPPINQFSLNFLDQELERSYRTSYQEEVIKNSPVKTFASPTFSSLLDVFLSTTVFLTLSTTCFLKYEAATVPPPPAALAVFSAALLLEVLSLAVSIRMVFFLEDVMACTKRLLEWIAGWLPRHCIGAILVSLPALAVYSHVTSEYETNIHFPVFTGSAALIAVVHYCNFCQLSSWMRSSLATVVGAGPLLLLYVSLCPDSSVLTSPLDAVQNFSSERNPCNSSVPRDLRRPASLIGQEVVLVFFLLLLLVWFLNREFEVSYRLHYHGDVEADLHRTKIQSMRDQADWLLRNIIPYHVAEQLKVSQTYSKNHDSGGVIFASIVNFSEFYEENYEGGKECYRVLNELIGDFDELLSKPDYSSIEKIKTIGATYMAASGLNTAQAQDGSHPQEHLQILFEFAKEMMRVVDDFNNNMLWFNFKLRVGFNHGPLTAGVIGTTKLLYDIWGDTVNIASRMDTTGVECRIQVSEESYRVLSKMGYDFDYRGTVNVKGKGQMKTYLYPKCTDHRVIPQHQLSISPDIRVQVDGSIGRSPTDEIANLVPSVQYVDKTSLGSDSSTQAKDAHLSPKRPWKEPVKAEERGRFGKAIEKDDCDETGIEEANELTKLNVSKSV
T2 sequence (P63092 2-394 Q227L partner): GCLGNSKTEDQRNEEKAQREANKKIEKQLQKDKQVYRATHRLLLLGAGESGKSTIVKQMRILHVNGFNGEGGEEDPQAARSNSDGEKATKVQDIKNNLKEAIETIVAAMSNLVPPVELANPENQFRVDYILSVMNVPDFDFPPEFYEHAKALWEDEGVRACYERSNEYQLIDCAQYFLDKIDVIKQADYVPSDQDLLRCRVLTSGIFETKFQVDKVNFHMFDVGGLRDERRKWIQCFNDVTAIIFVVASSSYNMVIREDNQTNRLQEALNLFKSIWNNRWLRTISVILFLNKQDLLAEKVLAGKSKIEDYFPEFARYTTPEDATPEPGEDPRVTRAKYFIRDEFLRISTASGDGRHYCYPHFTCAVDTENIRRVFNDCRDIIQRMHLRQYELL
Description: as §1, §2

[3] = molecular target: T3, mAC3 (Homo sapiens, UniProt O60266); assay: AC assay, Gsα-stimulated mAC3 in membranes from transfected HEK293 cells; settings: for mAC3 activity [%] (100% = 300nM Gsα stimulation): fatty acid 20 µM, individual experiments; for Effect of lipid on 300 nM Gsα-stimulated mAC3: 20 µM, in words
T3 construct: Human mAC genes were from GenScript and fitted with a C-terminal FLAG-tag; FLAG (C); made in house; host or cells: HEK293, permanently transfected; membrane preparation
T3 sequence (O60266 whole entry): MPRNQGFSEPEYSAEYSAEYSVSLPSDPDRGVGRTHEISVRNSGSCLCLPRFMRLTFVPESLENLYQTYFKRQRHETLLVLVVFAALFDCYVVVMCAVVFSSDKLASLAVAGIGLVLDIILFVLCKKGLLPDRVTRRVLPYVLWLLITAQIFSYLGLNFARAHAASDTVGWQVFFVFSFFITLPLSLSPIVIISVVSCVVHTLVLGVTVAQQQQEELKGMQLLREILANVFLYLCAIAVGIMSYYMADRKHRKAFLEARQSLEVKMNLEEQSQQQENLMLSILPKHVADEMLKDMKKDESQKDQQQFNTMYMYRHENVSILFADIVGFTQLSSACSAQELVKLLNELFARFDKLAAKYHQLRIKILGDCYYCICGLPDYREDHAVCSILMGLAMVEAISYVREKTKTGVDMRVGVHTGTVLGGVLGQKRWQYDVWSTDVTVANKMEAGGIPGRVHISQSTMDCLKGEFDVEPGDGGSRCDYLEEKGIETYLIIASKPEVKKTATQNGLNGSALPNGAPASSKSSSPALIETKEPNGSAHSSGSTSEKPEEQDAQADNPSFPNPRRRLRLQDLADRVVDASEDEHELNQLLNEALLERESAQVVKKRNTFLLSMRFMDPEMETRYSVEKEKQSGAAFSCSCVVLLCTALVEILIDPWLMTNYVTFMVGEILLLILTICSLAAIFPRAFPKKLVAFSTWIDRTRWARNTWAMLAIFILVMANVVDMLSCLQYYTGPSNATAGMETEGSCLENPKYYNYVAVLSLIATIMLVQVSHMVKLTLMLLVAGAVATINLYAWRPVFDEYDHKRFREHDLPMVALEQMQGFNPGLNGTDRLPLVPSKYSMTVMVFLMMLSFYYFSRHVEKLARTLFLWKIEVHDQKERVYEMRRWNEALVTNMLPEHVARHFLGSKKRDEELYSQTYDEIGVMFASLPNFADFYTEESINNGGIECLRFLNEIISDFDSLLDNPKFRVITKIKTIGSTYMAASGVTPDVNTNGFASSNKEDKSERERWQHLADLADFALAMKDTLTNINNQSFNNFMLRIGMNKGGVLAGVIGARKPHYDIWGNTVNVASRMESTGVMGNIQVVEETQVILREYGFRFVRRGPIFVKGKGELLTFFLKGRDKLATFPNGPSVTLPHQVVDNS
T3 sequence (P63092 whole entry Q227L partner): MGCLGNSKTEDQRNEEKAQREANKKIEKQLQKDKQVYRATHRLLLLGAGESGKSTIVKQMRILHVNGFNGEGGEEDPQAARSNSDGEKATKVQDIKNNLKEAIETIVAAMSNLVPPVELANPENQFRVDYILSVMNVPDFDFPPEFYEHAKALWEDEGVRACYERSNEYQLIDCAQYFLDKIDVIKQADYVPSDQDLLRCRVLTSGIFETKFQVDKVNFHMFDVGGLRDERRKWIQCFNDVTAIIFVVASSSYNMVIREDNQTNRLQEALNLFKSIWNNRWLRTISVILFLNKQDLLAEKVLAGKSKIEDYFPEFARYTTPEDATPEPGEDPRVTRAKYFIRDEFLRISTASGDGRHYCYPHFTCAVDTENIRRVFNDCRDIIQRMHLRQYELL
Description: as §1, §2

[4] = molecular target: T4, mAC7 (Homo sapiens, UniProt P51828); assay: AC assay, Gsα-stimulated mAC7 in membranes from transfected HEK293 cells; settings: for mAC7 activity [%] (100% = 300nM Gsα stimulation); 20µM fatty acid concentration: Figure 5-figure supplement 2 left
T4 construct: Human mAC genes were from GenScript and fitted with a C-terminal FLAG-tag; FLAG (C); made in house; host or cells: HEK293, permanently transfected; membrane preparation
T4 sequence (P51828 whole entry): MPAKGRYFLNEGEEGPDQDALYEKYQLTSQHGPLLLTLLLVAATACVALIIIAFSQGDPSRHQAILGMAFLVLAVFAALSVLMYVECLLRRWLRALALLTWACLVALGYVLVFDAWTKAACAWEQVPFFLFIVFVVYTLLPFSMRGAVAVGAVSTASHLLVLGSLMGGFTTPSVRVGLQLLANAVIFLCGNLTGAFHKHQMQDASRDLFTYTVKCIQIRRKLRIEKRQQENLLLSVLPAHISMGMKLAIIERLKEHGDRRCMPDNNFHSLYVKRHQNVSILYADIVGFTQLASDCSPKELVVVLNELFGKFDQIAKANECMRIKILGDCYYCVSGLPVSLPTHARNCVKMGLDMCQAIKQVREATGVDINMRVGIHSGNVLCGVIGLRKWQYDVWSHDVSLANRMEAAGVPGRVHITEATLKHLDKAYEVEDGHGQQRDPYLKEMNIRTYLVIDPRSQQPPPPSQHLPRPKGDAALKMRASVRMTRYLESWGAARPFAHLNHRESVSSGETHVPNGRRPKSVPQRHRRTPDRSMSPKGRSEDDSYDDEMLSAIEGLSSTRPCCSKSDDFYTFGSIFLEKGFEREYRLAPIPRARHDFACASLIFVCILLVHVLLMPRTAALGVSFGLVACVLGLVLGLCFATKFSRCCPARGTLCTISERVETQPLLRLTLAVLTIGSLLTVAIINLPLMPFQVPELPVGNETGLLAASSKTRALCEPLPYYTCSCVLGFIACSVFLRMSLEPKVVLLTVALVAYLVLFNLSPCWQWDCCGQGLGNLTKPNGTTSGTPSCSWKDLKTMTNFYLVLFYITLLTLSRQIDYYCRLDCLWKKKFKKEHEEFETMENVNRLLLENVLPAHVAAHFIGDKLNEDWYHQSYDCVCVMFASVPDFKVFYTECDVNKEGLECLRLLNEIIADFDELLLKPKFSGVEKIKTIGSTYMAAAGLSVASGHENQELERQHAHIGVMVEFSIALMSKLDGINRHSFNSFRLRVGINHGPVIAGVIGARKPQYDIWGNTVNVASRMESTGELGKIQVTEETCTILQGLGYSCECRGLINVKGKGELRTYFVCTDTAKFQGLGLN
T4 sequence (P63092 2-394 Q227L partner): as the sequence (P63092 2-394 Q227L partner) above
Description: as §1, §2

[5] = molecular target: T5, mAC1 (Homo sapiens, UniProt Q08828); assay: AC assay, Gsα-stimulated mAC1 in membranes from transfected HEK293 cells; settings: for mAC1 activity [%] (100% = 300nM Gsα stimulation); 20µM fatty acid concentration: single experiments
T5 construct: Human mAC genes were from GenScript and fitted with a C-terminal FLAG-tag; FLAG (C); made in house; host or cells: HEK293, permanently transfected; membrane preparation
Description: as §1, §2

[6] = molecular target: T6, mAC2 (Homo sapiens, UniProt Q08462); assay: AC assay, Gsα-stimulated mAC2 in membranes from transfected HEK293 cells; settings: Figure 5-figure supplement 1 left, 20 µM
T6 construct: Human mAC genes were from GenScript and fitted with a C-terminal FLAG-tag; FLAG (C); made in house; host or cells: HEK293, permanently transfected; membrane preparation
Description: as §1, §2

[7] = molecular target: T7, mAC6 (Homo sapiens, UniProt O43306); assay: AC assay, Gsα-stimulated mAC6 in membranes from transfected HEK293 cells; settings: 20µM fatty acid concentration
T7 construct: Human mAC genes were from GenScript and fitted with a C-terminal FLAG-tag; FLAG (C); made in house; host or cells: HEK293, permanently transfected; membrane preparation
Description: as §1, §2

[8] = molecular target: T8, mAC4 (Homo sapiens, UniProt Q8NFM4); assay: AC assay, Gsα-stimulated mAC4 in membranes from transfected HEK293 cells; settings: for mAC4 activity [%] (100% = 300nM Gsα stimulation); 20µM fatty acid concentration: single experiments
T8 construct: Human mAC genes were from GenScript and fitted with a C-terminal FLAG-tag; FLAG (C); made in house; host or cells: HEK293, permanently transfected; membrane preparation
T8 sequence (Q8NFM4 1-1077): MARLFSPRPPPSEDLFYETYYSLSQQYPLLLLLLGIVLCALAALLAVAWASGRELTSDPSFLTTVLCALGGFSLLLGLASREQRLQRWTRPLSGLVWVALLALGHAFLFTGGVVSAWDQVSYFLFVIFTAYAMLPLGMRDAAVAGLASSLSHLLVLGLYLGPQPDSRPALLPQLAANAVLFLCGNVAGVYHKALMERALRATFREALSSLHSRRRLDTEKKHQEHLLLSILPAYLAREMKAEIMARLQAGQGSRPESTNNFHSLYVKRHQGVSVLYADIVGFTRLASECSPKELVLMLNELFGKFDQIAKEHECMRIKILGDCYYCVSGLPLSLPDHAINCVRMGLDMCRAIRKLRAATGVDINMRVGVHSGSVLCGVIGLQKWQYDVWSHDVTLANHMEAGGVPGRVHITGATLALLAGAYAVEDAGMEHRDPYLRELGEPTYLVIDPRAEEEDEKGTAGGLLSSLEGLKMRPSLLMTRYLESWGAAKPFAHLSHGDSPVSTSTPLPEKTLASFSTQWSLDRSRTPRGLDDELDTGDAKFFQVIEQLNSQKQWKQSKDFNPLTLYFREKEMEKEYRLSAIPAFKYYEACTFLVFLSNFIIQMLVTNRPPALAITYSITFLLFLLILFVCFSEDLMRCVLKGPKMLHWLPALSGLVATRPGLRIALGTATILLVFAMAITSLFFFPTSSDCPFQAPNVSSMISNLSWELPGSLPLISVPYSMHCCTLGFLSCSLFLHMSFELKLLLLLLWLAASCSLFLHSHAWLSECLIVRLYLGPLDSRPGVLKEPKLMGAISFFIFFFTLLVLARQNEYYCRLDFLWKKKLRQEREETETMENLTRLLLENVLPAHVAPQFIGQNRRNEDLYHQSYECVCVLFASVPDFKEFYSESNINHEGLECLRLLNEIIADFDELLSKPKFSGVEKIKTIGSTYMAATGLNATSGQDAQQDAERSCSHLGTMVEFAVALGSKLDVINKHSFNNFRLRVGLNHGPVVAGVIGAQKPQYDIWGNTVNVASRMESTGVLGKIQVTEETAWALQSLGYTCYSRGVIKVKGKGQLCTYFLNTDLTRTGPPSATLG
Description: as §1, §2

| Compound | mAC5 activity [%] (100% = 300nM Gsα stimulation) [1] | mAC9 activity [%] (100% = 300nM Gsα stimulation); 20µM fatty acid concentration [2] | mAC3 activity [%] (100% = 300nM Gsα stimulation) [3] | mAC7 activity [%] (100% = 300nM Gsα stimulation); 20µM fatty acid concentration [4] | mAC1 activity [%] (100% = 300nM Gsα stimulation); 20µM fatty acid concentration [5] | mAC2 activity [%] (100% = 300nM Gsα stimulation); 20µM fatty acid concentration [6] | mAC6 activity [%] (100% = 300nM Gsα stimulation) [7] | mAC4 activity [%] (100% = 300nM Gsα stimulation); 20µM fatty acid concentration [8] | mAC9 activity (%);(100% = Gsα stimulation) stimulated by 300nM Gsα ([2]; 3 µM fatty acid) | mAC9 activity (%);(100% = Gsα stimulation) stimulated by 300nM Gsα ([2]; 6 µM fatty acid) | EC50 ([2]; enhancement of 300 nM Gsα-stimulated activity, read-out: EC50 for mAC9) | Effect of lipid on 300 nM Gsα-stimulated mAC3 [3] | EC50 ([4]; enhancement of 300 nM Gsα-stimulated activity) | activity at 0.3 µM ([4]; read-out: mAC7 activity (%);(100% = Gsα stimulation) stimulated by 300nM Gsα, Elaidic acid 0.3 µM) | Effect of lipid on 300 nM Gsα-stimulated mAC1 ([5]; 20 µM, in words) | Effect of lipid on 300 nM Gsα-stimulated mAC4 ([8]; 20 µM, in words) |
| --- | --- | --- | --- | --- | --- | --- | --- | --- | --- | --- | --- | --- | --- | --- | --- | --- |
| Triolein | 95% | 107% | 96% | 83% | – | – | – | – | – | – | – | – | – | – | – | – |
| O=C(O)CCCCCCCCCCCCCCCCCCC(=O)O [Octadecane-(COOH)2, 1,18-Octadecanedicarboxylic acid] | 102% and 118% and 78% | 102% and 67% | 104% and 106% and 66% | 81% and 97% | 88% and 87% and 108% | 101% and 81% and 91% | 83% and 136% and 76% | 91% and 73% | – | – | – | – | – | – | – | – |
| CCCCCCCC/C=C\CCCCCCCC(=O)OC(CO)CO [2-Oleoylglycerol] | 96% | 131% | 72% | 93% | – | – | – | – | – | – | – | – | – | – | – | – |
| CCCCCCCC/C=C\CCCCCCCC(=O)OC [Me-Oleate, Methyl oleate] | 60% and 91% | 86% and 143% | 141% and 90% | 115% and 85% | 99% and 63% | 121% and 73% | 78% and 90% | 77% and 99% | – | – | – | – | – | – | – | – |
| CCCCCCCC/C=C/CCCCCCCC(=O)O [Elaidic acid, Elaidic ((9E)-octadecenoic) acid] | – | – | 437% and 276% and 279% and 778% and 673% | – | 72% and 100% | 131% | 101% and 97% | 130% and 156% and 151% | 154% and 261% and 166% and 178% | 346% and 329% and 316% and 303% and 243% | 5 µM | efficient enhancers | 9.7 µM | 100% | – | – |
| CC/C=C\C/C=C\C/C=C\C/C=C\C/C=C\CCCC(=O)O [EPA, Eicosapentaenoic ((5Z,8Z,11Z,14Z,17Z)-eicosapentaenoic) acid] | 101% and 83% | – | 169% and 200% and 266% and 160% | 113% and 166% | 99% and 107% and 86% and 87% | 102% and 159% | 112% and 108% | – | – | – | – | less efficacious | – | – | no effect | no effect |
| CC/C=C\C/C=C\C/C=C\CCCCCCCC(=O)O [Linolenic acid, Linolenic ((9Z,12Z,15Z)-octadecatrienoic) acid] | 79% and 81% | – | 159% and 177% and 241% and 105% and 288% and 273% | – | 63% and 90% | 99% and 105% | 103% and 104% | 62% and 65% and 86% | 144% and 110% and 75% | 125% and 149% and 124% and 119% and 96% | – | less efficacious | – | – | – | – |
